# Legend:
# in vitro = conditions: mouse, liver microsomes
# physchem = conditions: PAMPA, pH 7.4
# Liver = conditions: human, microsomes
Compound,remaining at 10 min (in vitro) [%],Papp (physchem) [nm/s],Stability (Liver) [%]
CNC(=O)c1cnc(Nc2ccc3ncsc3c2)cc1N[C@@H](c1ccccc1)[C@H](O)CO,21 to 31,19,90
CNC(=O)c1cnc(Nc2ccc(OC)c(F)c2)cc1N[C@@H](c1ccccc1)[C@H](O)CO,20,63,80
